Data set [1] in a line: wn = mass fraction of the nth substance listed. As to conditions: 298.15 K, 101.3 kPa, Liquid.
The conditions of data set [2]: 101.33 kPa, Liquid.

Broadly, the viscosity is the resistance of a fluid to flow.

Structures are written as SMILES. ± gives the expanded uncertainty stated by the source.

Take `OCCO` [1,2-ethanediol] + CC(=O)[O-].CCCCn1cc[n+](C)c1: the viscosity in data set [1] (w1 = 1) was found to be 16.1 ± 2 mPa·s.

With `CC(=O)[O-].CCCCn1cc[n+](C)c1` [1-butyl-3-methylimidazolium acetate], the viscosity in data set [2] (298.15 K) is on record as 383 ± 85 mPa·s; in data set [2] (353.15 K), 26 ± 2 mPa·s; in data set [2] (373.1 K) it was 15 ± 2 mPa·s; in data set [2] (393.15 K) it was 9 ± 2 mPa·s.

On to `CC(=O)[O-].CCCCn1cc[n+](C)c1` [1-butyl-3-methylimidazolium acetate] + CC#N, for which the viscosity in data set [1] (w2 = 0.089) is 148 ± 19 mPa·s; in data set [1] (w2 = 0.213), 27 ± 2 mPa·s; in data set [1] (w2 = 0.389), 5 ± 2 mPa·s; in data set [1] (w2 = 0.593), 2 mPa·s.

For the compound `CC(=O)[O-].CCCCn1cc[n+](C)c1` [1-butyl-3-methylimidazolium acetate] + CN(C)C=O, the viscosity in data set [1] (w2 = 0.062) worked out at 231 ± 40 mPa·s; in data set [1] (w2 = 0.191), 54 ± 3 mPa·s; in data set [1] (w2 = 0.389), 11 ± 2 mPa·s; in data set [1] (w2 = 0.606), 4 mPa·s.

Regarding `CC(=O)[O-].CCCCn1cc[n+](C)c1` [1-butyl-3-methylimidazolium acetate] + O, the viscosity in data set [1] (w2 = 0.029) is given as 383 ± 88 mPa·s; in data set [1] (w2 = 0.031) it was 341 ± 74 mPa·s; in data set [1] (w2 = 0.048), 236 ± 41 mPa·s; in data set [1] (w2 = 0.512) it was 18 ± 2 mPa·s; in data set [1] (w2 = 0.731) it was 5 ± 2 mPa·s.

On to `CC(=O)[O-].CCCCn1cc[n+](C)c1` [1-butyl-3-methylimidazolium acetate] + OCCO, for which the viscosity is reported as 291 ± 58 mPa·s in data set [1] (w2 = 0.081), 102 ± 9 mPa·s in data set [1] (w2 = 0.248), 39 ± 2 mPa·s in data set [1] (w2 = 0.464) and 26 ± 2 mPa·s in data set [1] (w2 = 0.678).

Take `CCCCn1cc[n+](C)c1.[Cl-]` [1-butyl-3-methylimidazolium chloride]: the viscosity in data set [2] (353.15 K) was 142 ± 17 mPa·s; in data set [2] (373.1 K), 68 ± 3 mPa·s; in data set [2] (393.15 K), 31 ± 2 mPa·s.

On to `CCCCn1cc[n+](C)c1.N#CN=C=[N-]` [1-butyl-3-methylimidazolium dicyanamide], for which the viscosity in data set [2] (298.15 K) came out at 31 ± 2 mPa·s; in data set [2] (353.15 K) it was 11 ± 2 mPa·s; in data set [2] (373.1 K), 6 ± 2 mPa·s; in data set [2] (393.15 K), 4 mPa·s.

Turning to `CC(=O)[O-].CCn1cc[n+](C)c1` [1-ethyl-3-methylimidazolium acetate], the viscosity in data set [2] (298.15 K) is recorded as 162 ± 21 mPa·s; in data set [2] (353.15 K) it was 17 ± 2 mPa·s; in data set [2] (373.1 K), 9 ± 2 mPa·s; in data set [2] (393.15 K) it was 5 ± 2 mPa·s.

As for `CC(=O)[O-].CCn1cc[n+](C)c1` [1-ethyl-3-methylimidazolium acetate] + O, the viscosity in data set [1] (w2 = 0.023) worked out at 122 ± 13 mPa·s; in data set [1] (w2 = 0.045), 81 ± 5 mPa·s; in data set [1] (w2 = 0.084), 57 ± 3 mPa·s; in data set [1] (w2 = 0.192), 32 ± 2 mPa·s; in data set [1] (w2 = 0.374), 12 ± 2 mPa·s; in data set [1] (w2 = 0.556), 4 mPa·s.

In the case of `CCn1cc[n+](C)c1.[Cl-]` [1-ethyl-3-methylimidazolium chloride], the viscosity in data set [2] (353.15 K) is reported as 65 ± 3 mPa·s; in data set [2] (373.1 K) it was 27 ± 2 mPa·s; in data set [2] (393.15 K), 13 ± 2 mPa·s.

On to `CCCCCCn1cc[n+](C)c1.[Cl-]` [1-hexyl-3-methylimidazolium chloride], for which the viscosity amounted to 293 ± 57 mPa·s in data set [2] (353.15 K), 87 ± 6 mPa·s in data set [2] (373.1 K) and 43 ± 3 mPa·s in data set [2] (393.15 K).

As to `CCCCCCCC[n+]1ccn(C)c1.[Cl-]` [1-methyl-3-octylimidazolium chloride], the viscosity in data set [2] (353.15 K) was 375 ± 82 mPa·s; in data set [2] (373.1 K), 161 ± 21 mPa·s; in data set [2] (393.15 K), 81 ± 5 mPa·s.

Take `CC#N` [acetonitrile] + CC(=O)[O-].CCCCn1cc[n+](C)c1: in data set [1] (w1 = 1), the viscosity is recorded as 0.34 mPa·s.

With `CN(C)C=O` [dimethylformamide] + CC(=O)[O-].CCCCn1cc[n+](C)c1, in data set [1] (w1 = 1), the viscosity is on record as 0.92 mPa·s.

Turning to `O` [water] + CC(=O)[O-].CCCCn1cc[n+](C)c1, in data set [1] (w1 = 1), the viscosity stood at 0.89 mPa·s.

Consider `O` [water] + CC(=O)[O-].CCn1cc[n+](C)c1, for which the viscosity in data set [1] (w1 = 1) came out at 0.89 mPa·s.
